Data as given in ChEMBL document CHEMBL1201862, “PubChem BioAssay data set” (2004).
Calls of active or inactive are those of the source.

Key:
[1] = molecular target: T1, Ubiquitin-conjugating enzyme E2 N (Homo sapiens, UniProt P61088); type: functional;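 further: Dose-response confirmation in a TR-FRET assay detecting UBC13-driven polyubiquitin chain formation, inhibition measured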
T1 sequence (P61088 whole entry): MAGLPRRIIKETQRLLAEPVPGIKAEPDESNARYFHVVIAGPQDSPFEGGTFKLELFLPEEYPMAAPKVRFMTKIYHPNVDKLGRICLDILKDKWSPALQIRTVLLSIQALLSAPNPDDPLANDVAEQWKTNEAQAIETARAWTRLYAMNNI

[2] = microbe, parasite or virus in culture; type: functional; conditions: Mycobacterium tuberculosis
[3] = Luminescence Cell-Based Dose Retest to Confirm Inhibitors of Cancer Stem Cells. [Related pubchem assays (depositor defined):AID2717, AID2721]; type: functional; conditions: Homo sapiens
Genome polyprotein = Genome polyprotein (dengue virus type 2, UniProt P29990); assay: flavivirus cap methylation enzyme inhibition – biochemical, confirmation dose response, primary screen (AID 588689); type: functional
Genome polyprotein, sequence (P29990 2492-3391 limits assumed): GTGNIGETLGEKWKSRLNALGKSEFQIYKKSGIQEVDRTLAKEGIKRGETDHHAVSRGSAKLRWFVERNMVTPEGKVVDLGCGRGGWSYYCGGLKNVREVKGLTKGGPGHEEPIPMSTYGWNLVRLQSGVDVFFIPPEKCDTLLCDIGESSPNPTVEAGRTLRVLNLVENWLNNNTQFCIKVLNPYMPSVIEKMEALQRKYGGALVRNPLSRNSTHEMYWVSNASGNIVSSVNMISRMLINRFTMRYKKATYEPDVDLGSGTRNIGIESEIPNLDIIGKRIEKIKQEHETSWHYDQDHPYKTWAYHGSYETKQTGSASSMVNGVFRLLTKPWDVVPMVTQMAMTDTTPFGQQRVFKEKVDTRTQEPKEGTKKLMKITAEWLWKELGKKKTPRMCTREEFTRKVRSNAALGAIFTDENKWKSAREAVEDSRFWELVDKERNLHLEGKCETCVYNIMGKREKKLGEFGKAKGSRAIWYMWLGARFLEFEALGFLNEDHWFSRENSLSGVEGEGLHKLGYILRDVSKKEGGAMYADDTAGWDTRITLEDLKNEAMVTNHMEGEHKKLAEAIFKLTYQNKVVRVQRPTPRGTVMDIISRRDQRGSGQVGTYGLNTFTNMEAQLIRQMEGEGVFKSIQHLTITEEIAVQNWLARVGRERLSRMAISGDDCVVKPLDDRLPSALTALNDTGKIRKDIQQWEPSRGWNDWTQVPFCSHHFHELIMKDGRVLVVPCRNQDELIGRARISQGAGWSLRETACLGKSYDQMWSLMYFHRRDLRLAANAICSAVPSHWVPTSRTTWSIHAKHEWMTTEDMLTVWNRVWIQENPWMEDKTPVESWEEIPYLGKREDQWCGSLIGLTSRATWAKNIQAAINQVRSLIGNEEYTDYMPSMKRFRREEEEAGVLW

[4] = molecular target: Heat shock protein HSP 90-alpha (Homo sapiens, UniProt P07900); type: functional, organism-based
Cytochrome P450 2C9 [5] = molecular target: T2, Cytochrome P450 2C9 (Homo sapiens, UniProt P11712)
T2 sequence (P11712 whole entry): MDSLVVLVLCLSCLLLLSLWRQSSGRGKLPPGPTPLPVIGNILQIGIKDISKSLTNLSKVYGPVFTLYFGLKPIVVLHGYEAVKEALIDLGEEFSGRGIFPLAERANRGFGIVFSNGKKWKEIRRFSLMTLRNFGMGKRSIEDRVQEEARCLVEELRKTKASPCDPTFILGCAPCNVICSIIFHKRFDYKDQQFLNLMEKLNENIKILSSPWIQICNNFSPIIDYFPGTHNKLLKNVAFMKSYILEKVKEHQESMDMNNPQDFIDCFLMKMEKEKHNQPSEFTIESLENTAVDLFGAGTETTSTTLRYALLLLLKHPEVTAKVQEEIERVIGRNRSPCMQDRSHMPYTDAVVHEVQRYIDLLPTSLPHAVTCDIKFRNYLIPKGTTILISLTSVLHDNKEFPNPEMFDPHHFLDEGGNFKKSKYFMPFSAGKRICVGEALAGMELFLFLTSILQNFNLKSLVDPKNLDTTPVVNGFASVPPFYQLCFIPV

[6] = viability of PTEN-deleted HCT116 cells – cell-based, HCT116 PTEN knockout, dose response (AID 1047); type: functional;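 further: HCT116 colon tumor cells with PTEN knocked out; cells exposed to compound for 60 hours before readout; potency for loss of cell viability measured by luminescence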
[7] = viability of HCT116 lacking mutant beta-catenin – cell-based, human colon tumor, dose response (AID 1045); type: functional;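 further: HCT116 colon tumor cells with beta catenin knocked out; cells exposed to compound for 60 hours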
[8] = molecular target: Eukaryotic translation initiation factor 4E (Mus musculus, UniProt P63073); assay: blockers of eIF4G binding by eIF4E – biochemical, TR-FRET, dose response (AID 855); type: functional;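 further: potency for disrupting eIF4E binding to eIF4GI seen as loss of FRET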
Eukaryotic translation initiation factor 4E, sequence (P63073 whole entry): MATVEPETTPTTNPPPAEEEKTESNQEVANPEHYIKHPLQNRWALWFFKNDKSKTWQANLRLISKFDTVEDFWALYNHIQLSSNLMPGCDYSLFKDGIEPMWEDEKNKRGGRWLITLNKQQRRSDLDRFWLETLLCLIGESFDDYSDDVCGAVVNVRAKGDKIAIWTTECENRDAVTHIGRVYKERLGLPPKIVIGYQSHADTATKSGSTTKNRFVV

[9] = molecular target: FAD-linked sulfhydryl oxidase ALR (Homo sapiens, UniProt P55789); assay: ALR-catalysed DTT oxidation blockers – biochemical, H2O2 detection, luminescence, cherry-pick, dose response (AID 493248)
FAD-linked sulfhydryl oxidase ALR, sequence (P55789 whole entry): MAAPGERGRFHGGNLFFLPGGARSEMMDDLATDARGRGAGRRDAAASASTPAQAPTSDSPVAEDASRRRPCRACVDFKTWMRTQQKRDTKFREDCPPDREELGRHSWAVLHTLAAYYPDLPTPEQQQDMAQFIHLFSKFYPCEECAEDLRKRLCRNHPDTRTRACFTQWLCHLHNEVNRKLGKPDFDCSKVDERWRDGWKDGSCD

Nonstructural protein 1 = Nonstructural protein 1 (Influenza A virus, UniProt Q194T2); type: functional, Influenza A virus (A/California/07/2009(H1N1))
Nonstructural protein 1, sequence (Q194T2 whole entry): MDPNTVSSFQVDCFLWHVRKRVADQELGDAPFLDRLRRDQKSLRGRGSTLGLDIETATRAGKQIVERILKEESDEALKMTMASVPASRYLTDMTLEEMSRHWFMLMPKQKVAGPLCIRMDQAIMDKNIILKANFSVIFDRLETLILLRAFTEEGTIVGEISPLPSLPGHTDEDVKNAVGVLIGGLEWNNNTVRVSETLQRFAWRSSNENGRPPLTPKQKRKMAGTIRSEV

Large T antigen = Large T antigen (Simian virus 40, UniProt P03070); type: functional, Betapolyomavirus macacae;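 further: Confirmatory-stage PubChem screen for compounds that inhibit SV40 T antigen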
Large T antigen, sequence (P03070 whole entry): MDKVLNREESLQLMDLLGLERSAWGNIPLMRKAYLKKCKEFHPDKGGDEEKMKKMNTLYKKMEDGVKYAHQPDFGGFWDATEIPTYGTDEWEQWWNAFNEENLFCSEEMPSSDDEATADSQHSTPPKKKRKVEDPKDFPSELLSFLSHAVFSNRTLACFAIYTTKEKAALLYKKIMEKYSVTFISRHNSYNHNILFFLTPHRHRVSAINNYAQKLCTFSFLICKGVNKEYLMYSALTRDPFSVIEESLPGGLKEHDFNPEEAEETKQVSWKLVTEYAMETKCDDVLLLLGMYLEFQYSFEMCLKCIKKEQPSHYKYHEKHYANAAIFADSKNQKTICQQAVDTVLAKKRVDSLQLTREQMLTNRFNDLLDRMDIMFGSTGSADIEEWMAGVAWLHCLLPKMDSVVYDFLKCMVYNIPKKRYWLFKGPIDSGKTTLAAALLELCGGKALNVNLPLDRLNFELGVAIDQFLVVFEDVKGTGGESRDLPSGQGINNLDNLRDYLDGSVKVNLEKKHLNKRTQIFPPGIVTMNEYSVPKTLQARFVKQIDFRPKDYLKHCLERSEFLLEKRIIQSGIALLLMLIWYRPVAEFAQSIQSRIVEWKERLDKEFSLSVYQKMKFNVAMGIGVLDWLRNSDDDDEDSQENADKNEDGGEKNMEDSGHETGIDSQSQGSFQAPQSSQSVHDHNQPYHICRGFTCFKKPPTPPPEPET

Protein RecA = molecular target: T3, Protein RecA (Mycobacterium tuberculosis, UniProt P9WHJ3); assay: Fluorescence Cell-Free Homogeneous Dose Retest to Identify Inhibitors of RecA-Intein Splicing Activity. [Related pubchem assays (depositor defined):AID2097, AID2223, AID489010, AID492950]; type: functional
T3 sequence (P9WHJ3 whole entry): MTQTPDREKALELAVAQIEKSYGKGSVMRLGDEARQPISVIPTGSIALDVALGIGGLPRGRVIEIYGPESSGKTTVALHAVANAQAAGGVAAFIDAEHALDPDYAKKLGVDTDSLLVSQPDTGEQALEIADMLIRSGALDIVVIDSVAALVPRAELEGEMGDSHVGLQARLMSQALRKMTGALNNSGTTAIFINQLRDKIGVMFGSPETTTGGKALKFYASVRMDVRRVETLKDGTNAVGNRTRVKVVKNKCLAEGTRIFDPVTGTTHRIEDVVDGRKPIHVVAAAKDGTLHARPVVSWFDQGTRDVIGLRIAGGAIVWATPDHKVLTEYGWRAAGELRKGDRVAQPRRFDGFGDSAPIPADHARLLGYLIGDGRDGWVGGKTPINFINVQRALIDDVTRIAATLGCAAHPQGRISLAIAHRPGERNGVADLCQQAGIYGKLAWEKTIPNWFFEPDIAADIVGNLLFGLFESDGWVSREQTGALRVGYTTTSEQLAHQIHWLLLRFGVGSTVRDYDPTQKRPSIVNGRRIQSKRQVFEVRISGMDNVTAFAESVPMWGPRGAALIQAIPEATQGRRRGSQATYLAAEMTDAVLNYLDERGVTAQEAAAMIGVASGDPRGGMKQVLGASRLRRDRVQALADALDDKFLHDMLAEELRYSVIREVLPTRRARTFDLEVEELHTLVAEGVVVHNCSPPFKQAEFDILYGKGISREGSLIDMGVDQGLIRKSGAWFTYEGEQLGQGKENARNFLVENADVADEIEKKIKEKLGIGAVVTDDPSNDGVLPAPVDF

[10] = molecular target: T4, Replicative DNA helicase DnaB (Mycobacterium tuberculosis, UniProt P9WMR3); assay: DnaB intein splicing inhibitors, dose response, biochemical, cell-free fluorescence (AID 449749); type: functional
T4 sequence (P9WMR3 whole entry): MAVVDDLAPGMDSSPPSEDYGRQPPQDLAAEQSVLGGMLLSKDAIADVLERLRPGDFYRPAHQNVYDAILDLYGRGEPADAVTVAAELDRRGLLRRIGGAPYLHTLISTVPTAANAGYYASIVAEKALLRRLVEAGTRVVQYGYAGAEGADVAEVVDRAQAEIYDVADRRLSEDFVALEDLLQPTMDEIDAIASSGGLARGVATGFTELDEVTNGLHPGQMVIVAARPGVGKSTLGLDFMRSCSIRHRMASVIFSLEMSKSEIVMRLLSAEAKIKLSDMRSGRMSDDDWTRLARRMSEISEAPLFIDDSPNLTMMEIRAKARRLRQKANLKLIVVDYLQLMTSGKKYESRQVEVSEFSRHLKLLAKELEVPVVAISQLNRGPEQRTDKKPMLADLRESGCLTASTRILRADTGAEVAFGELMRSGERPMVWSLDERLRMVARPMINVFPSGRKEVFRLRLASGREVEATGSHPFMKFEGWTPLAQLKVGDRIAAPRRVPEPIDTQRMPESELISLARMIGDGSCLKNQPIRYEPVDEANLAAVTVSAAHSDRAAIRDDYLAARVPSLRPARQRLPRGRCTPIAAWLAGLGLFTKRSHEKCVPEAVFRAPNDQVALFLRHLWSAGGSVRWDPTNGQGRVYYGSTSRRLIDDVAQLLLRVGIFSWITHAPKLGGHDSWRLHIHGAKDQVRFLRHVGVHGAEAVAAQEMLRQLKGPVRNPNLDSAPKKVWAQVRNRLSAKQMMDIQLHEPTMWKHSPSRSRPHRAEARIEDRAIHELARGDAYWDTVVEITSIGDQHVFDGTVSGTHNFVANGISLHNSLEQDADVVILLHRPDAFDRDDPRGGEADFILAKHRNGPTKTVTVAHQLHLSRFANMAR

[11] = system: Streptococcus sp. 'group A'; assay: Streptococcus pyogenes SK(-)GAS viability under kanamycin – luminescence, BacTiterGlo, confirmation, counter-screen for streptokinase expression inhibitor project, dose response (AID 1900); type: functional, organism-based
Streptococcus = assay: GAS UMAA2166 growth inhibition – luminescence, BacTiterGlo, counter-screen for streptokinase expression inhibitor project, dose response (AID 1915); type: functional, organism-based;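 further: potency for reduction of bacterial viability or growth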
Streptokinase A = molecular target: T5, Streptokinase A (Streptococcus pyogenes serotype M1, UniProt P10520); assay: viability-normalized secreted streptokinase activity reduction – plasminogen activation absorbance, OD405, dose response (AID 1914); type: functional, Streptococcus pyogenes M1 GAS;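 further: secreted streptokinase activity via plasminogen activation per viability signal from cell pellet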
T5 sequence (P10520 whole entry): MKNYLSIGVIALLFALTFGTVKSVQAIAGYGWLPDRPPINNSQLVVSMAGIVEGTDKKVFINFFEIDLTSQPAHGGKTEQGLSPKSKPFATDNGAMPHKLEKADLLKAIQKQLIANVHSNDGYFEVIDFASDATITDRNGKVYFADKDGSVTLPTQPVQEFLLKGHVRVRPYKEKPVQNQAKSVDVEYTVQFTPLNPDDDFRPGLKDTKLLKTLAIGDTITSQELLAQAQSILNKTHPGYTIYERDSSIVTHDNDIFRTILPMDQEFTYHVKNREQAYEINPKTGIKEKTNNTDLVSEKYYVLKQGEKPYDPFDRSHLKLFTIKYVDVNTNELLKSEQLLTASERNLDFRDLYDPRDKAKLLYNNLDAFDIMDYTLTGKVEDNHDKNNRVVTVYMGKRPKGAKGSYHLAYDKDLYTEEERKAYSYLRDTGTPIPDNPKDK

[12] = reduction of Shn3 3'UTR-driven luciferase in osteoblasts – cell-based, Clone20 osteoblasts, firefly luciferase, cherry-picked, dose response (AID 624132); type: functional;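 further: firefly luciferase luminescence from reporter carrying the Shn3 3'UTR in osteoblasts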
[13] = loss of viability in HepG2 cells – cell-based, CellTiter-Glo, cherry-picked, cytotoxicity control for Shn3 inhibitor project, dose response (AID 624134); type: functional
[14] = non-specific 3'UTR reporter inhibition in Clone20-Shn3RL – cell-based, Renilla luciferase, cherry-picked, counter-screen for Shn3 inhibitor project, dose response (AID 624133); type: functional
Cytochrome P450 2C9 [15] = molecular target: T2, Cytochrome P450 2C9; remark: listed apart in the source
Cytochrome P450 2D6 = Cytochrome P450 2D6 (Homo sapiens, UniProt P10635);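 further: CYP2D6 member of a cytochrome P450 panel assay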
Cytochrome P450 2D6, sequence (P10635 whole entry): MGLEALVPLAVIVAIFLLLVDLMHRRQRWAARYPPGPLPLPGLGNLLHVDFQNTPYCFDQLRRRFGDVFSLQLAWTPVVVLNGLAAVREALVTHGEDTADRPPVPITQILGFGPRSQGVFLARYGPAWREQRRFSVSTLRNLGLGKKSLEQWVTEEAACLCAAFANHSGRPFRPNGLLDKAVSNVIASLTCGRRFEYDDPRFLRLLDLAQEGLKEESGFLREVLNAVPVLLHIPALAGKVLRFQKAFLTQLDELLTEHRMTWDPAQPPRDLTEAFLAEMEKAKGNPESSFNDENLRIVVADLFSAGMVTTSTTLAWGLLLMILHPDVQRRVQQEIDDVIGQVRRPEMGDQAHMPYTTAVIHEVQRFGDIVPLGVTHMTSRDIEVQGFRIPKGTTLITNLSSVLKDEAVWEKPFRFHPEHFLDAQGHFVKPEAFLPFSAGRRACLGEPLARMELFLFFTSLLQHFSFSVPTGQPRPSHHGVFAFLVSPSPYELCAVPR

cells [16] = type: functional, cell-based
cells [17] = type: functional, cell-based; remark: listed apart in the source

COC(=O)C1=C(C)N(Cc2ccccc2)C(NCc2cccc(Cl)c2)=N[C@H]1c1ccccc1
IC50 [1]: > 20 µM (inactive) | CC50 [2]: 18.5 µM (active) | AC50 [3]: 6.12 µM (active)

O=C1OC(c2ccccc2)(c2cc(Br)c(O)c(Br)c2)c2ccccc21 (centres undefined)
IC50 (Genome polyprotein): 35.2 µM (active) | AC50 [4]: 4.1 µM (active)

CC1Cc2ccccc2N1C(=O)C1CCCCN1S(=O)(=O)c1ccccc1 (centres undefined)
AC50 (Cytochrome P450 2C9 [5]): inconclusive

Cc1ccc(-c2ccc(/C=N\NC(=O)c3cc4c(ccc5ccccc54)o3)o2)cc1[N+](=O)[O-]
EC50 [6]: 5.36 µM (active) | EC50 [7]: 6.21 µM (active)

COc1ccc2c(c1)CC[C@@H]1[C@@H]2CC[C@]2(C)C(=O)CC[C@@H]12
IC50 [8]: > 64 µM (inactive)

Cc1cc(C)c2c(c1)-c1cc(C)nn1C(c1cccnc1)N2 (centres undefined)
AC50 [9]: 1.77 µM (active)

COc1cccc(CNC(=O)Nc2cccs2)c1
AC50 [9]: 10.4 µM (active)

O=C(CCN1CCOCC1)c1ccccc1
EC50 [6]: 31.9 µM (active) | EC50 [7]: 24.8 µM (active)

CC1(C)C(=O)N(CCN2CCC(C(=O)c3ccc(F)cc3)CC2)c2ccccc21
AC50 (Cytochrome P450 2C9 [5]): inconclusive

Cc1ncc(CO)c(/C=N/NC(=O)c2cccc(S(=O)(=O)N3CCCC3)c2)c1O
IC50 [1]: > 20 µM (inactive) | IC50 (Nonstructural protein 1): 4.73 µM (active)

Cc1ccc(Cl)cc1N1CCN(CC(=O)NC2CCCc3ccccc32)CC1 (centres undefined)
CC50 [2]: > 40 µM (active) | AC50 [3]: 5.48 µM (active)

Cc1csc(NC(=O)CSc2ccc(-c3ccccn3)nn2)n1
IC50 (Nonstructural protein 1): 10.2 µM (active)

Nc1ncc(N=Nc2cc(C(=O)O)ccc2Cl)s1
IC50 (Genome polyprotein): 73.6 µM (active) | IC50 (Large T antigen): 67.1 µM (active)

Cc1ccc2c(c1)C1CN(C)CCC1N2C(=O)/C(C#N)=C/c1ccc2c(c1)OCO2 (centres undefined)
IC50 [1]: > 20 µM (inactive)

CCOc1ccc(NC(=O)CC(NCc2ccccn2)C(=O)O)cc1 (centres undefined)
IC50 (Nonstructural protein 1): 1.28 µM (active)

C/C(=N\NC(=O)c1cccc(N/N=C(\C)c2ccncc2)c1)c1ccncc1
AC50 [9]: 0.205 µM (active)

CCCCCC(=O)Nc1ccc(C(=O)N/N=C/c2ccc([N+](=O)[O-])cc2)cc1
EC50 [6]: 3.92 µM (active) | EC50 [7]: 4.99 µM (active)

COc1cc(N=Nc2cccc(S(N)(=O)=O)c2)c2ccccc2c1N
EC50 (Protein RecA): 11.5 µM (active) | IC50 (Nonstructural protein 1): 14.2 µM (active) | AC50 [10]: 5.37 µM (active)

CC(=O)Oc1ccc2c(c1)OC(c1ccccc1)CC21CC(C)(C)NC(=S)N1 (centres undefined)
IC50 [8]: > 64 µM (inactive)

O=C(Nc1cccc(Cl)c1)Nc1nc(-c2ccc(Cl)cc2)cs1
EC50 [6]: 28.1 µM (active) | EC50 [7]: 94.2 µM (active)

C/C(=N\NC(=S)NCC(C)(C)C)c1cc(F)cc(F)c1O
EC50 [11]: 1.32 µM (active) | EC50 (Streptococcus): 2.68 µM (active) | CC50 [2]: 22.9 µM (active) | EC50 (Streptokinase A): 0.501 µM (active)

CCc1nc(SCc2cccnc2)nc(O)c1C
AC50 [9]: 0.563 µM (active)

COc1ccc(C2CC(c3ccccc3)=NN2c2ccc(Cl)c(C(=O)O)c2)cc1 (centres undefined)
IC50 (Genome polyprotein): 39.9 µM (active)

Cc1ccc(-c2nn(-c3ccccc3)cc2CN(Cc2ccccc2)C(=O)CCC(=O)O)o1
AC50 [9]: 0.471 µM (active)

c1ccc2c(-c3n[nH]cc3CNCCCn3ncc4ccccc43)cccc2c1
AC50 [12]: 3.25 µM (active) | AC50 [13]: 56.7 µM (active) | AC50 [14]: 4.62 µM (active)

O=C1NC(=S)N(C2CC2)C(=O)/C1=C/NNC(=O)c1ccccc1
IC50 (Nonstructural protein 1): 12.7 µM (active)

O=C(NCCN1CCOCC1)c1nn2c(c1Cl)NC(c1ccccc1)CC2C(F)(F)F (centres undefined)
AC50 (Cytochrome P450 2C9 [15]): 35.5 µM (inconclusive) | AC50 (Cytochrome P450 2D6): 35.5 µM (inconclusive) | IC50 [8]: > 64 µM (inactive)

O=C1CCCC(=O)C1=CNc1cccc(C(F)(F)F)c1
EC50 (cells [16]): > 350 µM (not active) | EC50 (cells [17]): > 350 µM (not active)

CCc1nnc(NC(=O)c2cc(Cl)ccn2)s1
IC50 (Nonstructural protein 1): 11.1 µM (active)

COC(=O)c1[nH]c2ccc(C)cc2c1NS(=O)(=O)c1ccc(F)cc1
AC50 [9]: 1.81 µM (active)

COc1ccc(CC(NC(C)=O)C(=O)NC2CCN(C(=O)c3cccc(Cl)c3)CC2)cc1OC (centres undefined)
EC50 (cells [16]): > 350 µM (not active) | EC50 (cells [17]): > 350 µM (not active)

Clc1ccc(-c2ccc(/C=N/Nc3nncc(-c4ccccc4)n3)o2)cc1
EC50 [6]: 16.9 µM (active) | EC50 [7]: 14.5 µM (active)
